Patent US12491251B2, “Degraders of cyclin-dependent kinase 7 (CDK7) and uses thereof” (DANA-FARBER CANCER INSTITUTE, INC., priority 2019, dated 2025)

Biological target: T1, CDK7 (Homo sapiens, UniProt P50613)
T1 construct: endogenous in cells; host or cells: Jurkat cells
Assay: CDK7 degradation in Jurkat cells by immunoblot
Assay type: cell-based
Conditions: 1 μM compound, 6 hours, vs DMSO
Experimental: Jurkat cells were treated with DMSO or 1 μM of compounds 1-26 for 6 hours. Cells were then lysed in radioimmunoprecipitation assay (RIPA) buffer (Sigma® Life Science) containing protease/phosphatase inhibitor cocktail (Roche). The protein concentrations were measured by bicinchoninic acid assay (BCA) analysis (Pierce™). Equal amounts of protein were resolved by 4-12% Tris-Base gels (Invitrogen™), and then transferred to the immunoblot polyvinylidene difluoride (PVDF) membrane (BioRad), and immunoblotted with primary antibodies against CDK7 (cell signaling) and glyceraldehyde 3-phosphate dehydrogenase (GAPDH) (Cell Signaling Technology®), and then immunoblotted with IRDye®800-labeled goat anti-rabbit immunoglobulin G (IgG) and IRDye®680-labeled goat anti-mouse IgG (LI-COR®) secondary antibodies. The membranes were detected on an Odyssey® CLx system.

T1 sequence (P50613 2-346 limits assumed): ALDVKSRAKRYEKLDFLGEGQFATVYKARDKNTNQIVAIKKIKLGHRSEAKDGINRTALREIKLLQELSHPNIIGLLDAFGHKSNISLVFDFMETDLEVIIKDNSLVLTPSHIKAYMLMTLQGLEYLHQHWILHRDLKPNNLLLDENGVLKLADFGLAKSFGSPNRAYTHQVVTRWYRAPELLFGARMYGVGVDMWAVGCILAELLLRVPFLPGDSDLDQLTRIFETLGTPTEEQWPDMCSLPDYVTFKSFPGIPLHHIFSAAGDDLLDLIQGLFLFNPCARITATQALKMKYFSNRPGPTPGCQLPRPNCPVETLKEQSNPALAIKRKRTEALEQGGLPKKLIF
T1 sequence (P51946 whole entry partner): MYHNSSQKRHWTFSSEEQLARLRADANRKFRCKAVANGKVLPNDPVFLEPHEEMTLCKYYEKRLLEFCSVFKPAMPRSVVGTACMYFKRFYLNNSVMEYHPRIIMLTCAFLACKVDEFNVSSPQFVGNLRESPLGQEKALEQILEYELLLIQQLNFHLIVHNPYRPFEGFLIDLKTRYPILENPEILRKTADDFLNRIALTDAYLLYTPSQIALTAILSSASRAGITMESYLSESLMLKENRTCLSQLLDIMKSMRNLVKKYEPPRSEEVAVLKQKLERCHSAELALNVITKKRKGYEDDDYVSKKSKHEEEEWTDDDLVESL
T1 sequence (P51948 whole entry partner): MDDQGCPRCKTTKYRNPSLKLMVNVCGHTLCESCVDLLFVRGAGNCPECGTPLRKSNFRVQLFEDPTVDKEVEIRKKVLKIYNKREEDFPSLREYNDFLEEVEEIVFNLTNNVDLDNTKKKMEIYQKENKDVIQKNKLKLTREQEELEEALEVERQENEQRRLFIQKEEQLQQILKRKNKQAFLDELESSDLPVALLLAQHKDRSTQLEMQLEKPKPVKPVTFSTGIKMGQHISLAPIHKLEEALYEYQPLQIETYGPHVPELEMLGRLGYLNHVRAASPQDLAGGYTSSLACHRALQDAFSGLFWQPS

CN(C)C[C@@H](NC(=O)N1Cc2c(NC(=O)c3ccc(NC(=O)CCCNc4cccc5c4C(=O)N(C4CCC(=O)NC4=O)C5=O)cc3)n[nH]c2C1(C)C)c1ccccc1 (stereo partly drawn) [Compound 16, N—((S)-2-(dimethylamino)-1-phenylethyl)-3-(4-(4-((2-(2,6-dioxopiperidin-3-yl)-1,3-dioxoisoindolin-4-yl)amino)butanamido)benzamido)-6,6-dimethyl-4,6-dihydropyrrolo[3,4-c]pyrazole-5(1H)-carboxamide]
degradation of CDK7 (immunoblot): induced the degradation of CDK7

Cc1ncsc1-c1ccc([C@H](C)NC(=O)[C@@H]2C[C@@H](O)CN2C(=O)[C@@H](NC(=O)CCCCCCCNC(=O)c2ccc(C(=O)Nc3n[nH]c4c3CN(C(=O)N[C@H](CN(C)C)c3ccccc3)C4(C)C)cc2)C(C)(C)C)cc1 [Compound 23, N^1-(5-(((S)-2-(dimethylamino)-1-phenylethyl)carbamoyl)-6,6-dimethyl-1,4,5,6-tetrahydropyrrolo[3,4-c]pyrazol-3-yl)-N^4-(8-(((S)-1-((2S,4R)-4-hydroxy-2-(((S)-1-(4-(4-methylthiazol-5-yl)phenyl)ethyl)carbamoyl)pyrrolidin-1-yl)-3,3-dimethyl-1-oxobutan-2-yl)amino)-8-oxooctyl)terephthalamide]
degradation of CDK7 (immunoblot): induced the degradation of CDK7

CN(C)C[C@@H](NC(=O)N1Cc2c(NC(=O)c3ccc(NC(=O)CCCCCCCCCCOc4cccc5c4C(=O)N(C4CCC(=O)NC4=O)C5=O)cc3)n[nH]c2C1(C)C)c1ccccc1 (stereo partly drawn) [Compound 10, N—((S)-2-(dimethylamino)-1-phenylethyl)-3-(4-(11-((2-(2,6-dioxopiperidin-3-yl)-1,3-dioxoisoindolin-4-yl)oxy)undecanamido)benzamido)-6,6-dimethyl-4,6-dihydropyrrolo[3,4-c]pyrazole-5(1H)-carboxamide]
degradation of CDK7 (immunoblot): induced the degradation of CDK7

CN(C)C[C@@H](NC(=O)N1Cc2c(NC(=O)c3ccc(C(=O)NCCCCCCc4cccc5c4C(=O)N(C4CCC(=O)NC4=O)C5=O)cc3)n[nH]c2C1(C)C)c1ccccc1 (stereo partly drawn) [Compound 13, N^1-(5-(((S)-2-(dimethylamino)-1-phenylethyl)carbamoyl)-6,6-dimethyl-1,4,5,6-tetrahydropyrrolo[3,4-c]pyrazol-3-yl)-N^4-(6-(2-(2,6-dioxopiperidin-3-yl)-1,3-dioxoisoindolin-4-yl)hexyl)terephthalamide]
degradation of CDK7 (immunoblot): induced the degradation of CDK7

CN(C)C[C@@H](NC(=O)N1Cc2c(NC(=O)c3ccc(C(=O)NCCCCCOc4cccc5c4C(=O)N(C4CCC(=O)NC4=O)C5=O)cc3)n[nH]c2C1(C)C)c1ccccc1 (stereo partly drawn) [Compound 8, N^1-(5-(((S)-2-(dimethylamino)-1-phenylethyl)carbamoyl)-6,6-dimethyl-1,4,5,6-tetrahydropyrrolo[3,4-c]pyrazol-3-yl)-N^4-(5-((2-(2,6-dioxopiperidin-3-yl)-1,3-dioxoisoindolin-4-yl)oxy)pentyl)terephthalamide]
degradation of CDK7 (immunoblot): induced the degradation of CDK7

CN(C)C[C@@H](NC(=O)N1Cc2c(NC(=O)c3ccc(C(=O)NCCCCCCCCOc4cccc5c4C(=O)N(C4CCC(=O)NC4=O)C5=O)cc3)n[nH]c2C1(C)C)c1ccccc1 (stereo partly drawn) [Compound 9, N^1-(5-(((S)-2-(dimethylamino)-1-phenylethyl)carbamoyl)-6,6-dimethyl-1,4,5,6-tetrahydropyrrolo[3,4-c]pyrazol-3-yl)-N^4-(8-((2-(2,6-dioxopiperidin-3-yl)-1,3-dioxoisoindolin-4-yl)oxy)octyl)terephthalamide]
degradation of CDK7 (immunoblot): induced the degradation of CDK7
